Test [1] has as its target T1, Histone-lysine N-methyltransferase EHMT1 (Homo sapiens, UniProt Q9H9B1).
T1 sequence (Q9H9B1 whole entry): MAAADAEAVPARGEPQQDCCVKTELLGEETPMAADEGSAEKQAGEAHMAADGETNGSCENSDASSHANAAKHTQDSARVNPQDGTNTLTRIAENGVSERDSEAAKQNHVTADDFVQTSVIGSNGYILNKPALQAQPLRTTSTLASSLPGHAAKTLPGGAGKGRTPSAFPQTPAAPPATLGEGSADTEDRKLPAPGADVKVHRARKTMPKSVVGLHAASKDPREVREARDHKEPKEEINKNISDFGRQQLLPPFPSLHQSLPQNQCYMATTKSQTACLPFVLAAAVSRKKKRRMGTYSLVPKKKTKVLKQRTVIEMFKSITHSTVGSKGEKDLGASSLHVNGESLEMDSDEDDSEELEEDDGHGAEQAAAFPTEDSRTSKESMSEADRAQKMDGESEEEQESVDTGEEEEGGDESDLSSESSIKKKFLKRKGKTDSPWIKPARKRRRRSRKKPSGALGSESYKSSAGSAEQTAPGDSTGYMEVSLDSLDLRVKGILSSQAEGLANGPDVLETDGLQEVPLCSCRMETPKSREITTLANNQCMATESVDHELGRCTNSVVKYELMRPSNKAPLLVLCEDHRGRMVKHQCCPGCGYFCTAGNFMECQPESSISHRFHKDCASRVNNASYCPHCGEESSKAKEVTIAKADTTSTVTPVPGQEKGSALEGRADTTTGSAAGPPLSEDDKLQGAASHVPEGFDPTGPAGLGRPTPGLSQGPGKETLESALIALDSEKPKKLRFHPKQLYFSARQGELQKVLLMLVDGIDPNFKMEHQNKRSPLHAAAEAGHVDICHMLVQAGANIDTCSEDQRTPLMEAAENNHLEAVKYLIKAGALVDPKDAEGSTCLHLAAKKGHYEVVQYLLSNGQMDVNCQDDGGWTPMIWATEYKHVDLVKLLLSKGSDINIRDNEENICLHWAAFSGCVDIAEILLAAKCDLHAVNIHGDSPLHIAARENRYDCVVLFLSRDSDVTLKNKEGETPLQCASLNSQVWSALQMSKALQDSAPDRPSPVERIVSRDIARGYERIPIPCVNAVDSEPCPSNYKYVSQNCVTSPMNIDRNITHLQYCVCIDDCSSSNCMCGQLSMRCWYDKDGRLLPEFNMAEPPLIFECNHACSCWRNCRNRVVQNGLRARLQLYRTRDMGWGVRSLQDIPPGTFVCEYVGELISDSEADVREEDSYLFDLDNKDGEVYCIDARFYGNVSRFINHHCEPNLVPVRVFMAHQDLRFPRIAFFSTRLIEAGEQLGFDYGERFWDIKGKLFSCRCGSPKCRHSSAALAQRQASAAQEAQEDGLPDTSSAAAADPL
Put plainly: Inhibition of recombinant GLP catalytic SET domain (982 to 1266 residues) (unknown origin) expressed in Escherichia coli BL21 (DE3) codon plus RIL assessed as inhibition of methylation activity using biotin-labeled H3 (1 to 25 residues) as substrate and [3H]-SAM after 2 hrs by scintillation proximity assay.

In test [2] the target is T2, Histone-lysine N-methyltransferase EHMT2 (Homo sapiens, UniProt Q96KQ7).
T2 sequence (Q96KQ7 whole entry): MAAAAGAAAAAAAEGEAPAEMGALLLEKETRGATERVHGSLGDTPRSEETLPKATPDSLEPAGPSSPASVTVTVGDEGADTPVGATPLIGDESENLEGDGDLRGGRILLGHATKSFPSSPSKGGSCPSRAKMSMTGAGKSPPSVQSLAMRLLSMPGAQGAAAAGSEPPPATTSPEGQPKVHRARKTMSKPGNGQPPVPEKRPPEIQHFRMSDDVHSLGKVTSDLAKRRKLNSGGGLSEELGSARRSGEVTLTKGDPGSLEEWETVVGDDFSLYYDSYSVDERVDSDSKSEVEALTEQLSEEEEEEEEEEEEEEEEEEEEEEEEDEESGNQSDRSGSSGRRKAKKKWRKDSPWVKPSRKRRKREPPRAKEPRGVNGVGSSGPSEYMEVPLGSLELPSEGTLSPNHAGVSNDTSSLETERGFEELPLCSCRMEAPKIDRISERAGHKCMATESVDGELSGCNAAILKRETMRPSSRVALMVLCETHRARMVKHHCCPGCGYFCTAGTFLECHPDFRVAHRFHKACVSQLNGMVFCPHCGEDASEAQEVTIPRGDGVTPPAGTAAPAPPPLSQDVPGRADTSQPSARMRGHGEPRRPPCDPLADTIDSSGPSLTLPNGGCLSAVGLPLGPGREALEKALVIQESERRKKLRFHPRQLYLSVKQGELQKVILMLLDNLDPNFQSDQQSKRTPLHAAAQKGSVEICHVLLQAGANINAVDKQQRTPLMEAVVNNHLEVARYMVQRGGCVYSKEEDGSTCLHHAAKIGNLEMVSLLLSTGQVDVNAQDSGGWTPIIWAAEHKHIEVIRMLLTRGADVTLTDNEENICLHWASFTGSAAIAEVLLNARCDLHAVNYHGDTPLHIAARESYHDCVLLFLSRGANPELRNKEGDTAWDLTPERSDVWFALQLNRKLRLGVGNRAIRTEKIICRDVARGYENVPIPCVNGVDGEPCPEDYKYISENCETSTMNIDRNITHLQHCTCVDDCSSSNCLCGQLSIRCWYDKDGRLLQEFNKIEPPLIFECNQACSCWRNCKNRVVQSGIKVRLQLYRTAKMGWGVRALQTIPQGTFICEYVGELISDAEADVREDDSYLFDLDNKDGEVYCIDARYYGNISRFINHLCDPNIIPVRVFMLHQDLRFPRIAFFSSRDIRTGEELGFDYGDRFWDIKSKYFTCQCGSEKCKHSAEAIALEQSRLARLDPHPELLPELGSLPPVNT
Put plainly: Inhibition of recombinant G9a catalytic SET domain (913 to 1193 residues) (unknown origin) expressed in Escherichia coli BL21 (DE3) codon plus RIL assessed as inhibition of methylation activity using biotin-labeled H3 (1 to 25 residues) as substrate and [3H]-SAM after 2 hrs by scintillation proximity assay.

Test [3] concerns the target T1, Histone-lysine N-methyltransferase EHMT1. As to the kind of experiment: Binding affinity to recombinant GLP catalytic SET domain (982 to 1266 residues) (unknown origin) expressed in Escherichia coli BL21 (DE3) codon plus RIL in presence of SAM by isothermal titration calorimetry.
Test [4] concerns the target T2, Histone-lysine N-methyltransferase EHMT2. As to the kind of experiment: Binding affinity to recombinant G9a catalytic SET domain (913 to 1193 residues) (unknown origin) expressed in Escherichia coli BL21 (DE3) codon plus RIL in presence of SAM by isothermal titration calorimetry.

As for `COc1cc2nc(N3CCOCC3)nc(NC3CCN(C)CC3)c2cc1C`, the IC50 in test [1] was 808 nM; in test [2] it was 4070 nM.

For the molecule `CCCN1CCC(Nc2nc(N3CCOCC3)nc3cc(OC)c(OC)cc23)CC1`, the concentration for half-maximal inhibition (IC50) in test [1] was found to be 11 nM; in test [2], 224 nM.

As to `COc1cc2nc(C3CCCCC3)nc(NC3CCN(C)CC3)c2cc1OC`, the concentration for half-maximal inhibition (IC50) in test [1] was 34 nM; in test [2], 438 nM.

For the molecule `COc1cc2nc(N3CCCCCC3)nc(NC3CCN(C)CC3)c2cc1OC`, the concentration for half-maximal inhibition (IC50) in test [1] was 16 nM; in test [2], 190 nM.

Regarding `COc1cc2nc(N3CCOCC3)nc(NC3CCN(C(C)C)CC3)c2cc1OC`, the values for the half-inhibitory concentration (IC50) in test [1] and in test [2] were 15 nM and 262 nM, respectively.

`COc1cc2nc(N3CCOCC3)nc(NC3CCN(C)CC3)c2cc1OC(C)C`: the IC50 in test [1] and in test [2] was greater than 5000 nM throughout.

On to `CCN1CCC(Nc2nc(N3CCOCC3)nc3cc(OC)c(OC)cc23)CC1`, for which the half-maximal inhibitory concentration (IC50) in test [1] is 26 nM; in test [2], 323 nM.

For `CCCCCN(C)c1nc(NC2CCN(C)CC2)c2cc(OC)c(OC)cc2n1`, the IC50 is 28 nM in test [1] and 306 nM in test [2].

Regarding `COc1cc2nc(N3CCCCC3)nc(NC3CCN(C)CC3)c2cc1OC`, the IC50 in test [1] was determined as 12 nM; in test [2] it was 31 nM.

For `COc1cc2nc(N3CCOCC3)nc(NC3CCN(C)CC3)c2cc1OC`, the concentration for half-maximal inhibition (IC50) in test [1] amounted to 13 nM; in test [2], 440 nM. For the same molecule, the equilibrium dissociation constant (Kd) stood at 40 nM in test [3] and 445 nM in test [4].

Consider `COc1cc2nc(N3CCC(F)(F)CC3)nc(NC3CCN(C)CC3)c2cc1OC`, for which the half-inhibitory concentration (IC50) in test [1] came out at 97 nM; in test [2], 1060 nM.

Take `CCOc1cc2nc(N3CCOCC3)nc(NC3CCN(C)CC3)c2cc1OC`: the IC50 was greater than 1000 nM in test [1] and greater than 5000 nM in test [2].

Turning to `CCCCCCNc1nc(NC2CCN(C)CC2)c2cc(OC)c(OC)cc2n1`, the IC50 is 7 nM in test [1] and 992 nM in test [2]. The values for the dissociation constant Kd in test [3] and in test [4] were 46 nM and 610 nM, respectively.

In the case of `COc1cc2nc(C3CCOCC3)nc(NC3CCN(C)CC3)c2cc1OC`, the 50% inhibitory concentration (IC50) in test [1] worked out at 341 nM; in test [2], 1910 nM.

`COc1cc2nc(N3CCCC3)nc(NC3CCN(C)CC3)c2cc1OC`: the concentration for half-maximal inhibition (IC50) in test [1] amounted to 12 nM; in test [2] it was 313 nM.

Consider `COc1cc2nc(N3CCCN(C)CC3)nc(NC3CCN(C)CC3)c2cc1OC`, for which the half-maximal inhibitory concentration (IC50) in test [1] worked out at 4 nM.

With `CCCCNc1nc(NC2CCN(C)CC2)c2cc(OC)c(OC)cc2n1`, the values for the IC50 in test [1] and in test [2] were 35 nM and 436 nM, respectively.

Take `CCCCN(C)c1nc(NC2CCN(C)CC2)c2cc(OC)c(OC)cc2n1`: the half-maximal inhibitory concentration (IC50) turned out to be 35 nM in test [1] and 407 nM in test [2].

Turning to `COc1cc2c(NC3CCN(C)CC3)nc(N3CCOCC3)nc2cc1OC(C)C`, the IC50 in test [1] and in test [2] was greater than 5000 nM throughout.

As to `COc1cc2nc(N3CCOCC3)nc(NC3CCN(C4CC4)CC3)c2cc1OC`, the IC50 in test [1] was found to be 12 nM; in test [2], 313 nM.

On to `COc1cc2nc(N3CCOCC3)nc(NC3CCN(C)CC3)c2cc1F`, for which the concentration for half-maximal inhibition (IC50) turned out to be 1230 nM in test [1] and 3690 nM in test [2].

As for `CCCCCCN(C)c1nc(NC2CCN(C)CC2)c2cc(OC)c(OC)cc2n1`, the 50% inhibitory concentration (IC50) in test [1] is 18 nM; in test [2], 311 nM.

Take `CCOc1cc2c(NC3CCN(C)CC3)nc(N3CCOCC3)nc2cc1OC`: the half-inhibitory concentration (IC50) in test [1] and in test [2] was greater than 5000 nM in each case.

On to `CCCCCCCNc1nc(NC2CCN(C)CC2)c2cc(OC)c(OC)cc2n1`, for which the results for the half-maximal inhibitory concentration (IC50) in test [1] and in test [2] were 44 nM and 756 nM, respectively.

On to `COc1cc2c(NC3CCN(C)CC3)nc(N3CCOCC3)nc2cc1F`, for which the concentration for half-maximal inhibition (IC50) in test [1] and in test [2] was greater than 5000 nM throughout.

Regarding `COc1cc2c(NC3CCN(C)CC3)nc(N3CCOCC3)nc2cc1C`, the IC50 in test [1] turned out to be 29 nM; in test [2], 1150 nM.

Regarding `CCCCCNc1nc(NC2CCN(C)CC2)c2cc(OC)c(OC)cc2n1`, the IC50 came out at 63 nM in test [1] and 341 nM in test [2].

For the origin of these results see ChEMBL document CHEMBL4004823, “Discovery of Potent and Selective Inhibitors for G9a-Like Protein (GLP) Lysine Methyltransferase” (J Med Chem, 2017).
